These results are taken from patent US7361659B2, “Pyrrazolo-pyrimidine derivatives” (Hoffmann-La Roche Inc., priority 2005, dated 2008).

As a reminder, the melting point is the temperature of the solid-liquid transition. In the case of `O=C(Nc1cc(S(=O)(=O)NC(CO)CO)sc1Cl)c1cnn2c(C(F)F)cc(-c3ccc(C(F)(F)F)cc3)nc12` [Example 28, 7-Difluoromethyl-5-(4-trifluoromethyl-phenyl)-pyrazolo[1,5-a]pyrimidine-3-carboxylic acid [2-chloro-5-(2-hydroxy-1-hydroxymethyl-ethylsulfamoyl)-thiophen-3-yl]-amide], the melting point amounted to 241 °C. Regarding `Cc1nc(NC(=O)c2cnn3c(C(F)(F)F)cc(-c4ccc(C(F)(F)F)cc4)nc23)sc1S(=O)(=O)N1CCN(C)CC1` [Example 69, 7-Trifluoromethyl-5-(4-trifluoromethyl-phenyl)-pyrazolo[1,5-a]pyrimidine-3-carboxylic acid [4-methyl-5-(4-methyl-piperazine-1-sulfonyl)-thiazol-2-yl]-amide], the melting point was 273 °C. Regarding `Cc1nc(NC(=O)c2cnn3c(C(F)F)cc(-c4ccc(C(F)(F)F)cc4)nc23)sc1S(=O)(=O)NCCN(C)C` [Example 57, 7-Difluoromethyl-5-(4-trifluoromethyl-phenyl)-pyrazolo[1,5-a]pyrimidine-3-carboxylic acid [5-(2-dimethylamino-ethylsulfamoyl)-4-methyl-thiazol-2-yl]-amide], the melting point worked out at 217 °C. `CCOc1cc(-c2cc(C(F)(F)F)n3ncc(C(=O)Nc4cc(S(=O)(=O)NC(C)(C)CO)sc4Cl)c3n2)ccc1C(F)(F)F` [Example 15, 5-(3-Ethoxy-4-trifluoromethyl-phenyl)-7-trifluoromethyl-pyrazolo[1,5-a]pyrimidine-3-carboxylic acid [2-chloro-5-(2-hydroxy-1,1-dimethyl-ethylsulfamoyl)-thiophen-3-yl]-amide] registered a melting point of 234 °C. On to `Cc1nc(NC(=O)c2cnn3c(C(F)(F)F)cc(-c4ccc(C(F)(F)F)c(OCC(F)(F)F)c4)nc23)sc1S(N)(=O)=O` [Example 27, 5-[3-(2,2,2-Trifluoro-ethoxy)-4-trifluoromethyl-phenyl]-7-trifluoromethyl-pyrazolo[1,5-a]pyrimidine-3-carboxylic acid (4-methyl-5-sulfamoyl-thiazol-2-yl)-amide], for which the melting point came out at 264 °C. The molecule `Cc1nc(NC(=O)c2cnn3c(C(F)(F)F)cc(-c4ccc(C(F)(F)F)cc4)nc23)sc1S(=O)(=O)NCCN(C)C` [Example 58, 7-Trifluoromethyl-5-(4-trifluoromethyl-phenyl)-pyrazolo[1,5-a]pyrimidine-3-carboxylic acid [5-(2-dimethylamino-ethylsulfamoyl)-4-methyl-thiazol-2-yl]-amide] came in with a melting point of 235 °C. For `CC(CO)(CO)NS(=O)(=O)c1cc(NC(=O)c2cnn3c(C(F)F)cc(-c4ccc(C(F)(F)F)cc4)nc23)c(Cl)s1` [Example 37, 7-Difluoromethyl-5-(4-trifluoromethyl-phenyl)-pyrazolo[1,5-a]pyrimidine-3-carboxylic acid [2-chloro-5-(2-hydroxy-1-hydroxymethyl-1-methyl-ethylsulfamoyl)-thiophen-3-yl]-amide] the value was 237 °C; for `NS(=O)(=O)c1cnc(NC(=O)c2cnn3c(C(F)F)cc(-c4ccc(C(F)(F)F)cc4)nc23)s1` [Example 52, 7-Difluoromethyl-5-(4-trifluoromethyl-phenyl)-pyrazolo[1,5-a]pyrimidine-3-carboxylic acid (5-sulfamoyl-thiazol-2-yl)-amide], 311 °C.

Take `Cc1nc(NC(=O)c2cnn3c(C(F)F)cc(-c4ccc(C(F)(F)F)cc4)nc23)sc1S(N)(=O)=O` [Example 7, 7-Difluoromethyl-5-(4-trifluoromethyl-phenyl)-pyrazolo[1,5-a]pyrimidine-3-carboxylic acid (4-methyl-5-sulfamoyl-thiazol-2-yl)-amide]: the melting point came out at 284 °C. Under `CC(C)(CO)NS(=O)(=O)c1cc(NC(=O)c2cnn3c(C(F)(F)F)cc(-c4ccc(Cl)cc4)nc23)c(Cl)s1` [Example 12, 5-(4-Chloro-phenyl)-7-trifluoromethyl-pyrazolo[1,5-a]pyrimidine-3-carboxylic acid [2-chloro-5-(2-hydroxy-1,1-dimethyl-ethylsulfamoyl)-thiophen-3-yl]-amide] stands 272 °C.

`CC(C)(CO)NS(=O)(=O)c1cnc(NC(=O)c2cnn3c(C(F)F)cc(-c4ccc(C(F)(F)F)cc4)nc23)s1` [Example 60, 7-Difluoromethyl-5-(4-trifluoromethyl-phenyl)-pyrazolo[1,5-a]pyrimidine-3-carboxylic acid [5-(2-hydroxy-1,1-dimethyl-ethylsulfamoyl)-thiazol-2-yl]-amide] had a melting point of 280 °C. Molecule `CCOc1cc(-c2cc(C(F)(F)F)n3ncc(C(=O)Nc4nc(C)c(S(=O)(=O)NC(C)(C)CO)s4)c3n2)ccc1C(F)(F)F` [Example 23, 5-(3-Ethoxy-4-trifluoromethyl-phenyl)-7-trifluoromethyl-pyrazolo[1,5-a]pyrimidine-3-carboxylic acid [5-(2-hydroxy-1,1-dimethyl-ethylsulfamoyl)-4-methyl-thiazol-2-yl]-amide] yielded a melting point of 276 °C. Regarding `CC(C)(CO)NS(=O)(=O)c1cc(NC(=O)c2cnn3c(C4CC4)cc(-c4ccc(Cl)cc4)nc23)c(Cl)s1` [Example 61, 5-(4-Chloro-phenyl)-7-cyclopropyl-pyrazolo[1,5-a]pyrimidine-3-carboxylic acid [2-chloro-5-(2-hydroxy-1,1-dimethyl-ethylsulfamoyl)-thiophen-3-yl]-amide], the melting point was in the range of 238 to 241 °C. In turn, `O=C(Nc1cc(S(=O)(=O)NC(CO)CO)sc1Cl)c1cnn2c(C(F)(F)F)cc(-c3ccc(C(F)(F)F)cc3)nc12` [Example 29, 7-Trifluoromethyl-5-(4-trifluoromethyl-phenyl)-pyrazolo[1,5-a]pyrimidine-3-carboxylic acid [2-chloro-5-(2-hydroxy-1-hydroxymethyl-ethylsulfamoyl)-thiophen-3-yl]-amide] showed a melting point of 225 °C. Molecule `Cc1sc(S(=O)(=O)NC(C)(C)CO)cc1NC(=O)c1cnn2c(C(F)F)cc(-c3ccc(C(F)(F)F)cc3)nc12` [Example 50, 7-Difluoromethyl-5-(4-trifluoromethyl-phenyl)-pyrazolo[1,5-a]pyrimidine-3-carboxylic acid [5-(2-hydroxy-1,1-dimethyl-ethylsulfamoyl)-2-methyl-thiophen-3-yl]-amide] gave a melting point of 180 °C. Turning to `Cc1nc(NC(=O)c2cnn3c(C(F)(F)F)cc(-c4ccc(C(F)(F)F)c(Cl)c4)nc23)sc1S(=O)(=O)NC(C)(C)CO` [Example 30, 5-(3-Chloro-4-trifluoromethyl-phenyl)-7-trifluoromethyl-pyrazolo[1,5-a]pyrimidine-3-carboxylic acid [5-(2-hydroxy-1,1-dimethyl-ethylsulfamoyl)-4-methyl-thiazol-2-yl]-amide], the melting point is 274 °C.

Molecule `O=C(Nc1cc(S(=O)(=O)N2CCC(O)C2)sc1Cl)c1cnn2c(C(F)F)cc(-c3ccc(C(F)(F)F)cc3)nc12` (racemic) [Example 66, 7-Difluoromethyl-5-(4-trifluoromethyl-phenyl)-pyrazolo[1,5-a]pyrimidine-3-carboxylic acid [(RS)-2-chloro-5-(3-hydroxy-pyrrolidine-1-sulfonyl)-thiophen-3-yl]-amide] had a melting point of 274 °C. Take `Cc1nc(NC(=O)c2cnn3c(C(F)F)cc(-c4ccc(C(F)(F)F)cc4)nc23)sc1S(=O)(=O)N(CCO)CCO` [Example 40, 7-Difluoromethyl-5-(4-trifluoromethyl-phenyl)-pyrazolo[1,5-a]pyrimidine-3-carboxylic acid {5-[bis-(2-hydroxy-ethyl)-sulfamoyl]-4-methyl-thiazol-2-yl}-amide]: the melting point came out at 191 °C. `NS(=O)(=O)c1nnc(NC(=O)c2cnn3c(C(F)(F)F)cc(-c4ccc(C(F)(F)F)cc4)nc23)s1` [Example 4, 7-Trifluoromethyl-5-(4-trifluoromethyl-phenyl)-pyrazolo[1,5-a]pyrimidine-3-carboxylic acid (5-sulfamoyl-[1,3,4]thiadiazol-2-yl)-amide] registered a melting point of 280 °C. Regarding `CN(C)CCNS(=O)(=O)c1cc(NC(=O)c2cnn3c(C(F)F)cc(-c4ccc(C(F)(F)F)cc4)nc23)c(Cl)s1` [Example 54, 7-Difluoromethyl-5-(4-trifluoromethyl-phenyl)-pyrazolo[1,5-a]pyrimidine-3-carboxylic acid [2-chloro-5-(2-dimethylamino-ethylsulfamoyl)-thiophen-3-yl]-amide], the melting point stood at 162 °C. `CCOc1cc(-c2cc(C(F)(F)F)n3ncc(C(=O)Nc4cc(S(=O)(=O)NCCO)sc4Cl)c3n2)ccc1C(F)(F)F` [Example 56, 5-(3-Ethoxy-4-trifluoromethyl-phenyl)-7-trifluoromethyl-pyrazolo[1,5-a]pyrimidine-3-carboxylic acid [2-chloro-5-(2-hydroxy-ethylsulfamoyl)-thiophen-3-yl]-amide] yielded a melting point of 250 °C. As to `Cc1nc(NC(=O)c2cnn3c(C(F)(F)F)cc(-c4ccc(C(F)(F)F)cc4)nc23)sc1S(=O)(=O)N1CCC(O)C1` (racemic) [Example 76, 7-Trifluoromethyl-5-(4-trifluoromethyl-phenyl)-pyrazolo[1,5-a]pyrimidine-3-carboxylic acid [(RS)-5-(3-hydroxy-pyrrolidine-1-sulfonyl)-4-methyl-thiazol-2-yl]-amide], the melting point came to 300 °C. Turning to `Cc1nc(NC(=O)c2cnn3c(C(F)F)cc(-c4ccc(C(F)(F)F)cc4)nc23)sc1S(=O)(=O)N1CCN(C)CC1` [Example 68, 7-Difluoromethyl-5-(4-trifluoromethyl-phenyl)-pyrazolo[1,5-a]pyrimidine-3-carboxylic acid [4-methyl-5-(4-methyl-piperazine-1-sulfonyl)-thiazol-2-yl]-amide], the melting point turned out to be 269 °C. `Cc1cc(-c2cc(C(F)(F)F)n3ncc(C(=O)Nc4nc(C)c(S(N)(=O)=O)s4)c3n2)ccc1C(F)(F)F` [Example 21, 5-(3-Methyl-4-trifluoromethyl-phenyl)-7-trifluoromethyl-pyrazolo[1,5-a]pyrimidine-3-carboxylic acid (4-methyl-5-sulfamoyl-thiazol-2-yl)-amide] came in with a melting point of 309 °C.
